Results on 2 molecules are retold here after patent EP0581464A1, “Ester derivatives and pharmaceutical compositions containing them” (ZENECA LIMITED, priority 1992, dated 1994).

Molecules are shown by their SMILES.

For the test, the target named is T1, 5-LO (Homo sapiens, UniProt P09917).
T1 construct: incubating a test compound with heparinised human blood, prior to challenge with the calcium ionophore A23187; endogenous in cells; host or cells: human whole blood (blood cells)
T1 sequence (P09917 1-674): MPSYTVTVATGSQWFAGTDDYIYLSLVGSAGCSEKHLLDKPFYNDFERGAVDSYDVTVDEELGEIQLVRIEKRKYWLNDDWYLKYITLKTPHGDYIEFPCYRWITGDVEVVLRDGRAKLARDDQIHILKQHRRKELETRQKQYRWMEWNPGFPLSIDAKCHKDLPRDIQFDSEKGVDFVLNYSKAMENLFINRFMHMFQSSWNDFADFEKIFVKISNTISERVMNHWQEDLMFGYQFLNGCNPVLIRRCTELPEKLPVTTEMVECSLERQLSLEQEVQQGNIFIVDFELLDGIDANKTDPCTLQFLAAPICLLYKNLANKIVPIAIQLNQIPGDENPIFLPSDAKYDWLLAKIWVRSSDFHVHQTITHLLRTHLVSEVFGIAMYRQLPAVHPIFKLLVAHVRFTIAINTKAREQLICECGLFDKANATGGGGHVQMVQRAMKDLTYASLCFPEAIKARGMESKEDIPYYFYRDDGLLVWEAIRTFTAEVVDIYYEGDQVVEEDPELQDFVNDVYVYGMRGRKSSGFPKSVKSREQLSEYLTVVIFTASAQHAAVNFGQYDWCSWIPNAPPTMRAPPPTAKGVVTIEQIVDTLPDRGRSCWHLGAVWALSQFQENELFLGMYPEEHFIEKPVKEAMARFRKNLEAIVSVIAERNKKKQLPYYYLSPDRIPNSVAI
Description: Test a): in vitro heparinised human blood challenged with calcium ionophore A23187, radioimmunoassay of LTB4. The class given is cell-based. As to conditions: A23187 challenge, read-out: IC50 against LTB4 in test (a). An excerpt: As stated previously, the compounds of the formula I are inhibitors of the enzyme 5-LO. […] J. Pharmacol. 1985, 84, 34P) which involve the use of a protein-LTB4 conjugate produced using the procedure of Young et alia (Prostaglandins, 1983, 26(4), 605-613). The effects of a test compound on the enzyme cyclooxygenase (which is involved in the alternative metabolic pathway for arachidonic acid and gives rise to prostaglandins, thromboxanes and related metabolites) may be measured at the same time using the specific radioimmunoassay for thromboxane B2(TxB2) described by Carey and Forder (see above). This test provides an indication of the effects of a test compound against 5-LO and also cyclooxygenase in the presence of blood cells and proteins. It permits the selectivity of the inhibitory effect on 5-LO or cyclooxygenase to be assessed. • b) An ex vivo assay system, which is a variation of test a) above, involving administration to a group of rats of a test compound (usually orally as the suspension produced when a solution of the test compound in dimethylsulphoxide is added to carboxymethylcellulose), blood collection, heparinisation, challenge with A23187 and radioimmunoassay of LTB4 and TxB2. […]

As to `CO/N=C(\C)c1ccc(COC(=O)/C=C(\N)C2(OC)CCOCC2)cc1` [Example 2, 4-[(E)-1-methoxyiminoethyl]benzyl (Z)-3-amino-3-(4-methoxytetrahydropyran-4-yl)prop-2-enoate], the IC50 worked out at 9.36 µM.

On to `COC1(/C(N)=C/C(=O)OCc2ccc3ccccc3c2)CCOCC1` [Example 1, naphth-2-ylmethyl (Z)-3-amino-3-(4-methoxytetrahydropyran-4-yi)prop-2-enoate], for which the IC50 was 0.07 µM.

For orientation: IC50 means the concentration at which inhibition is half-maximal.
